Legend:
[1] = tested on: Italian ryegrass; test: Test Example 5: herbicidal effect by foliage application, plastic box (Table 20, symbol K); format: in vivo, Italian ryegrass (Lolium multiflorum); settings: foliage application, evaluated 3 weeks after application
Method in brief: (§1)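 Foliar spray test: emulsion formulation diluted in water to a set application rate, sprayed onto 14-day-old plants raised in diluvial soil at 25° C to 30° C under glass. Both herbicidal effect and crop effect rated visually three weeks later.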

[2] = tested on: blackgrass; test: Test Example 4: herbicidal effect by soil treatment (Table 19, symbol J); format: in vivo, blackgrass (Alopecurus myosuroides)
Method in brief: (§2)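 Step 1: sow seeds in sterilized diluvial soil, cover ~1.5 cm. Step 2: spray diluted emulsion onto soil surface at predetermined rate. Step 3: greenhouse, 25–30° C, three weeks. Step 4: grade effect on each plant by earlier criteria.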

[3] = tested on: velvetleaf; test: Test Example 5: herbicidal effect by foliage application, plastic box (Table 20, symbol M); format: in vivo, velvetleaf (Abutilon theophrasti); settings: foliage application, evaluated 3 weeks after application
Method in brief: as §1

[4] = tested on: Chinese sprangletop; test: Test Example 3: herbicidal effect by foliage application, Wagner pot (Table 18, symbol D); format: in vivo, chinese sprangletop (Leptochloa chinensis)
Method in brief: (§3)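 Plants were sown in alluvial soil held under 0.1–0.5 cm standing water and grown 14 days in a greenhouse at 25–30 °C. An emulsifiable formulation, water-diluted to the set dose, was then sprayed onto the foliage, and effects were scored three weeks later using previously defined criteria.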

[5] = tested on: lambsquarters; test: Test Example 5: herbicidal effect by foliage application, plastic box (Table 20, symbol O); format: in vivo, lambsquarters (Chenopodium album); settings: foliage application, evaluated 3 weeks after application
Method in brief: as §1

[6] = tested on: persian speedwell; test: Test Example 5: herbicidal effect by foliage application, plastic box (Table 20, symbol R); format: in vivo, Persian speedwell (Veronica persica); settings: foliage application, evaluated 3 weeks after application
Method in brief: as §1

[7] = tested on: lambsquarters; test: Test Example 4: herbicidal effect by soil treatment (Table 19, symbol O); format: in vivo, lambsquarters (Chenopodium album)
Method in brief: as §2

[8] = tested on: chickweed; test: Test Example 5: herbicidal effect by foliage application, plastic box (Table 20, symbol P); format: in vivo, common chickweed (Stellaria media); settings: foliage application, evaluated 3 weeks after application
Method in brief: as §1

[9] = tested on: Japanese bulrush; test: Test Example 2: herbicidal activity, application during weed generation under submerged conditions (Table 17, symbol B); format: in vivo, Japanese bulrush (Schoenoplectus juncoides); settings: application during weed generation under submerged conditions
Method in brief: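 Mixed weed seedlings in alluvial soil under a 4 cm water layer, greenhouse-grown at 25–30° C. Compound given as a diluted emulsion into the floodwater at the 1–2 leaf stage; response graded after three weeks.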

[10] = tested on: blackgrass; test: Test Example 5: herbicidal effect by foliage application, plastic box (Table 20, symbol J); format: in vivo, blackgrass (Alopecurus myosuroides); settings: foliage application, evaluated 3 weeks after application
Method in brief: as §1

[11] = tested on: rice flat sedge; test: Test Example 3: herbicidal effect by foliage application, Wagner pot (Table 18, symbol E); format: in vivo, rice flat sedge (Cyperus iria)
Method in brief: as §3

[12] = tested on: barnyard grass; test: Test Example 4: herbicidal effect by soil treatment (Table 19, symbol H); format: in vivo, barnyard grass (Echinochloa crus-galli)
Method in brief: as §2

[13] = tested on: barnyard grass; test: Test Example 5: herbicidal effect by foliage application, plastic box (Table 20, symbol H); format: in vivo, barnyard grass (Echinochloa crus-galli); settings: foliage application, evaluated 3 weeks after application
Method in brief: as §1

[14] = tested on: wild oat; test: Test Example 5: herbicidal effect by foliage application, plastic box (Table 20, symbol I); format: in vivo, wild oat (Avena fatua); settings: foliage application, evaluated 3 weeks after application
Method in brief: as §1

[15] = tested on: green foxtail; test: Test Example 4: herbicidal effect by soil treatment (Table 19, symbol G); format: in vivo, green foxtail (Setaria viridis)
Method in brief: as §2

[16] = tested on: Italian ryegrass; test: Test Example 4: herbicidal effect by soil treatment (Table 19, symbol K); format: in vivo, Italian ryegrass (Lolium multiflorum)
Method in brief: as §2

[17] = tested on: windgrass; test: Test Example 5: herbicidal effect by foliage application, plastic box (Table 20, symbol L); format: in vivo, windgrass (Apera spica-venti); settings: foliage application, evaluated 3 weeks after application
Method in brief: as §1

[18] = amount of applied herbicide 320 g/ha
[19] = amount of applied herbicide 402 g/ha

| SMILES | K (Italian ryegrass) herbicidal effect grade ([1]; 320 g/ha) | J: blackgrass, herbicidal effect grade [2, 18] | M (velvetleaf) herbicidal effect grade ([3]; 320 g/ha) | Herbicidal effect on D (Chinese sprangletop), foliage application [4, 18] | O (lambsquarters) herbicidal effect grade ([5]; 320 g/ha) | R (persian speedwell) herbicidal effect grade ([6]; 320 g/ha) | O: lambsquarters, herbicidal effect grade [7, 18] | P (chickweed) herbicidal effect grade ([8]; 320 g/ha) | herbicidal effect grade, B: Japanese bulrush [9, 18] | J (blackgrass) herbicidal effect grade ([10]; 320 g/ha) | Herbicidal effect on E (rice flat sedge), foliage application [11, 18] | H: barnyard grass, herbicidal effect grade [12, 18] | H (barnyard grass) herbicidal effect grade ([13]; 320 g/ha) | I (wild oat) herbicidal effect grade ([14]; 320 g/ha) | G: green foxtail, herbicidal effect grade [15, 18] | K: Italian ryegrass, herbicidal effect grade [16, 18] | L (windgrass) herbicidal effect grade ([17]; 320 g/ha) | also measured |
| --- | --- | --- | --- | --- | --- | --- | --- | --- | --- | --- | --- | --- | --- | --- | --- | --- | --- | --- |
| CCCC(=O)Oc1c(C)nn(C)c(=O)c1-c1c(-c2ccc(SCC)cc2)oc2ccc(C)cc12 [9-058] | 5 (Herbicidal rate of 90% or more (almost completely withered)) | 0 (Herbicidal rate of 5% or less (almost no effect)) | 5 (Herbicidal rate of 90% or more (almost completely withered)) | 3 (Herbicidal rate of 40% or more and less than 70%) | 5 (Herbicidal rate of 90% or more (almost completely withered)) | 5 (Herbicidal rate of 90% or more (almost completely withered)) | 5 (Herbicidal rate of 90% or more (almost completely withered)) | 5 (Herbicidal rate of 90% or more (almost completely withered)) | 3 (Herbicidal rate of 40% or more and less than 70%) | 3 (Herbicidal rate of 40% or more and less than 70%) | 5 (Herbicidal rate of 90% or more (almost completely withered)) | 2 (Herbicidal rate of 20% or more and less than 40%) | 4 (Herbicidal rate of 70% or more and less than 90%) | 2 (Herbicidal rate of 20% or more and less than 40%) | 5 (Herbicidal rate of 90% or more (almost completely withered)) | 5 (Herbicidal rate of 90% or more (almost completely withered)) | 0 (Herbicidal rate of 5% or less (almost no effect)) |  |
| Cc1ccc2oc(-c3ccc(SC(C)C)cc3)c(-c3c(O)c(C)nn(C)c3=O)c2c1 [9-059] | 5 (Herbicidal rate of 90% or more (almost completely withered)) | 0 (Herbicidal rate of 5% or less (almost no effect)) | 5 (Herbicidal rate of 90% or more (almost completely withered)) | 3 (Herbicidal rate of 40% or more and less than 70%) | 5 (Herbicidal rate of 90% or more (almost completely withered)) | 5 (Herbicidal rate of 90% or more (almost completely withered)) | 5 (Herbicidal rate of 90% or more (almost completely withered)) | 5 (Herbicidal rate of 90% or more (almost completely withered)) | 3 (Herbicidal rate of 40% or more and less than 70%) | 1 (Herbicidal rate of 5% or more and less than 20%) | 5 (Herbicidal rate of 90% or more (almost completely withered)) | 1 (Herbicidal rate of 5% or more and less than 20%) | 3 (Herbicidal rate of 40% or more and less than 70%) | 3 (Herbicidal rate of 40% or more and less than 70%) | 3 (Herbicidal rate of 40% or more and less than 70%) | 4 (Herbicidal rate of 70% or more and less than 90%) | 1 (Herbicidal rate of 5% or more and less than 20%) |  |
| CCCC(=O)Oc1c(C)nn(C)c(=O)c1-c1c(-c2ccc(SC(C)C)cc2)oc2ccc(C)cc12 [9-060] |  |  |  |  |  |  |  |  |  |  |  |  |  |  |  |  |  | K (Italian ryegrass) herbicidal effect grade ([1]; 402 g/ha): 5 (Herbicidal rate of 90% or more (almost completely withered)); J: blackgrass, herbicidal effect grade [2, 19]: 0 (Herbicidal rate of 5% or less (almost no effect)); M (velvetleaf) herbicidal effect grade ([3]; 402 g/ha): 5 (Herbicidal rate of 90% or more (almost completely withered)); Herbicidal effect on D (Chinese sprangletop), foliage application [4, 19]: 2 (Herbicidal rate of 20% or more and less than 40%); O (lambsquarters) herbicidal effect grade ([5]; 402 g/ha): 5 (Herbicidal rate of 90% or more (almost completely withered)); R (persian speedwell) herbicidal effect grade ([6]; 402 g/ha): 5 (Herbicidal rate of 90% or more (almost completely withered)); O: lambsquarters, herbicidal effect grade [7, 19]: 4 (Herbicidal rate of 70% or more and less than 90%); P (chickweed) herbicidal effect grade ([8]; 402 g/ha): 5 (Herbicidal rate of 90% or more (almost completely withered)); herbicidal effect grade, B: Japanese bulrush [9, 19]: 3 (Herbicidal rate of 40% or more and less than 70%); J (blackgrass) herbicidal effect grade ([10]; 402 g/ha): 1 (Herbicidal rate of 5% or more and less than 20%); Herbicidal effect on E (rice flat sedge), foliage application [11, 19]: 5 (Herbicidal rate of 90% or more (almost completely withered)); H: barnyard grass, herbicidal effect grade [12, 19]: 0 (Herbicidal rate of 5% or less (almost no effect)); H (barnyard grass) herbicidal effect grade ([13]; 402 g/ha): 3 (Herbicidal rate of 40% or more and less than 70%); I (wild oat) herbicidal effect grade ([14]; 402 g/ha): 3 (Herbicidal rate of 40% or more and less than 70%); G: green foxtail, herbicidal effect grade [15, 19]: 3 (Herbicidal rate of 40% or more and less than 70%); K: Italian ryegrass, herbicidal effect grade [16, 19]: 4 (Herbicidal rate of 70% or more and less than 90%); L (windgrass) herbicidal effect grade ([17]; 402 g/ha): 0 (Herbicidal rate of 5% or less (almost no effect)) |

Reference: patent publication US20230085307A1, “PYRIDAZINONE COMPOUND AND HERBICIDE” (NISSAN CHEMICAL CORPORATION, priority 2019, published 2023)
